Assay results from patent US20100076092A1, “LIPID-DERIVED NANOPARTICLES FOR BRAIN-TARGETED DRUG DELIVERY” (priority 2006, published 2010).

Assay: Biodistribution / brain delivery of drug in mice after intravenous drug-loaded nanoparticles
Assay type: in vivo
Details: mouse, BMS, 12 mg/kg intravenously through tail vein in mice, HPLC, mean±SD (n=6), read-out: drug levels in the brain
Experimental: The brain delivery of BMS was assessed one hour following intravenous administration of brain lipid-coated nanoparticles in mice (FIG. 1). BMS in nanoparticles with or without brain-derived lipids or equivalent amount in solution (12 mg/kg) was injected intravenously in mice through tail vein, and drug levels in different tissues at the end of 1 hr was analyzed by HPLC. Data as mean±SD (n=6). * p<0.05. […] Data as mean±SD (n=4 and 3). * p<0.05.

- concentration at 1 h: 2360 ± 580 ng/g
Structure (SMILES): Cc1noc(NS(=O)(=O)c2cccc3c(N(C)C)cccc23)c1C [solution control, BMS 182874]
